# Assay results reported in US5322846A, “4-methylthiazole derivatives, their methods of preparation and the pharmaceutical compositions in which they are present” (Institut de Recherches Chimiques et Biologiques Appliquees …, priority 1990, dated 1994).
# Counter-ions that a name gives are not always drawn. Like-named read-outs stand apart in the source and are kept apart here.
# Experiments:
# [1] = Acute toxicity in mice (oral, LD50); details: mouse, in vivo, male mice, single dose, 14-day observation
# Protocol: The products were administered orally in a single dose to male mice with an average weight of 22 g. The mortality was recorded after a 14-day observation period.
# The results are expressed in the form of the 50% lethal dose (LD50), i.e. the theoretical dose in mg.kg^-1, administered orally, which causes the death of 50% of the animals.
# The majority of the molecules have an LD50 of more than 1 g.kg^-1. These are therefore products with a low toxicity after a single administration.
# [2] = target: T1, postsynaptic alpha-adrenergic receptors (Rattus norvegicus, UniProt P43140); assay: Alpha-blocking activity towards norepinephrine on isolated rat vas deferens; assay type: biochemical; details: -log of concentration requiring doubled norepinephrine, read-out: pA2 (converted)
# T1 construct: causes contraction of the isolated vas deferens; from tissue; host or cells: isolated rat vas deferens
# T1 sequence (P43140 1-466): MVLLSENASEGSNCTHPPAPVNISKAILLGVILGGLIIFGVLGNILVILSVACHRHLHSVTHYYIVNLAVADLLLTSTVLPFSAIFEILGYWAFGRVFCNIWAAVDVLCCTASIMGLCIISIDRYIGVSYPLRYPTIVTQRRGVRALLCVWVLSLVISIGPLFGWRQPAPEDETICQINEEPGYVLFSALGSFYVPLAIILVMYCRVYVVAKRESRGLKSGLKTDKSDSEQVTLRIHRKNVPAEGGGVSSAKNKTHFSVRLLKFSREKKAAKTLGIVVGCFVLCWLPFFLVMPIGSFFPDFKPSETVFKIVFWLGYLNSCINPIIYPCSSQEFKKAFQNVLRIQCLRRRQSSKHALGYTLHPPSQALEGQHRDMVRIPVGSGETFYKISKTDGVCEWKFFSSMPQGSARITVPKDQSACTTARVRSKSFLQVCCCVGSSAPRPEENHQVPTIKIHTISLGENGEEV
# Protocol: Stimulation of the postsynaptic alpha-adrenergic receptors by norepinephrine causes contraction of the isolated vas deferens.
# The concentration of product in whose presence the norepinephrine concentration must be doubled in order to obtain the same effect as in the absence of said product is determined. The logarithm of this concentration, with the opposite sign, constitutes the pA2 of the products.
# Their alpha-blocking activity is high since it appears for low concentrations of between 10^-6 M and 10^-8 M.
# [3] = system: lethal effect of norepinephrine; assay: Adrenolytic activity in vivo on the lethal effect of norepinephrine in rats; details: for ED50: Rattus norvegicus, wake male rats, norepinephrine 0.4 mg.kg^-1 intravenous, prior administration of product, read-out: ED50 (dose which protects 50% of the animals); for adrenolytic activity in the whole animals: rats, in words
# Protocol: The intravenous injection of norepinephrine (0.4 mg.kg^-1) into wake male rats causes the death of 100% of the animals. The prior administration of a substance which has an alpha-blocking property makes it possible to reduce this toxicity.
# The results are expressed in the form of the 50% effective dose (ED50), i.e. the dose in mg.kg^-1 which protects 50% of the animals (Table 5).
# [4] = system: hypertension induced by norepinephrine; assay: Inhibitory activity towards hypertension induced by norepinephrine in anesthetized rabbits; assay type: in vivo; details: anesthetized male rabbits, intravenous; for ED50: Oryctolagus cuniculus, read-out: ID50 (50% inhibition of norepinephrine-induced hypertension)
# Protocol: The blood pressure is measured by catheterization of the left carotid artery of anesthetized male rabbits. An increase in blood pressure is induced by an intravenous injection of norepinephrine. This hypertension can be inhibited by the prior administration of molecules with an alpha-blocking potential.
# These are presented in Table 6 in the form of the 50% inhibitory dose (ID50), which is defined as the dose of product which, when administered intravenously, causes a 50% inhibition of the hypertension induced by norepinephrine.
# [5] = system: femoral blood pressure and heart rate; assay: Cardiovascular activity (blood pressure and heart rate) in anesthetized rats; assay type: in vivo; details: for Heart rate, maximum effect in % / ED25: I.V., pentobarbital-anesthetized rats; for ED25: Rattus norvegicus, iv, 25% drop in average blood pressure
# Protocol: The cardiovascular effects of three products were studied in rats anesthetized with pentobarbital and placed under artificial respiration. The femoral blood pressure and the heart rate are recorded by means of a GOULD-BRUSH apparatus.
# The products are administered intravenously in increasing doses. Three animals are tested per product. The dose which causes a 25% drop in average blood pressure (ED25) was evaluated for each product and compared with nicardipine 1 to 5 min after administration.
# The products have dose-dependent hypotensive effects but have little or no effect on the heart rate (Table 7). The most hypotensive in terms of the effective dose is B 1395 (ED25 of 0.004 mg.kg^-1).
# [6] = 1 min, 1 minute, read-out: Blood pressure: Hypotension, ED25 at 1 minute
# [7] = 5 min, 5 minutes, read-out: Blood pressure: Hypotension, ED25 at 5 minutes
Compound,LD50 at 336 h [1] [mg/kg],Kb [2] [µM],ED50 [3] [mg/kg],adrenolytic activity in the whole animals [3],ED50 [4] [mg/kg],"Heart rate, maximum effect in % [5] [%]","ED25 [5, 6] [mg/kg]","ED25 [5, 7] [mg/kg]",active dose [4],effectiveness against norepinephrine-induced hypertension ([4]; in words),"hypotensive potential compared with nicardipine ([5]; ED25 values 5 min after I.V. injection, in words)"
"CCOc1ccccc1N1CCN(CC(O)COc2scnc2C)CC1 (stereo not shown) [B 1392, 3-(4-o-ethoxyphenylpiperazin-1-yl)-1-(4-methylthiazolyl-5-oxy)propan-2-ol]",260,0.0132,0.3,very active,2.6,-11.2,0.024,0.048,–,–,–
"CCCOc1ccccc1N1CCN(CC(O)COc2scnc2C)CC1 (stereo not shown) [B 1395, 3-(4-o-propoxyphenylpiperazin-1-yl)-1-(4-methylthiazolyl-5-oxy)propan-2-olmonohydrochloride]",515,0.02,0.2,very active,0.2,-4,0.004,0.1,less than 1 mg.kg^-1,particularly effective,on a level with that of nicardipine
